17 compounds from patent publication US20100016401A1, “3-AZA-BICYCLO[3.1.0]HEXANE DERIVATIVES” (Actelion Phamaceuticals Ltd., priority 2006, published 2010) can be followed below.

The target of experiment [1] is T1, human orexin-1 receptor (Homo sapiens, UniProt O43613).
T1 construct: expressed in transfected cells; host or cells: CHO (Chinese hamster ovary) cells, grown under G418 selection
T1 sequence (O43613 1-425): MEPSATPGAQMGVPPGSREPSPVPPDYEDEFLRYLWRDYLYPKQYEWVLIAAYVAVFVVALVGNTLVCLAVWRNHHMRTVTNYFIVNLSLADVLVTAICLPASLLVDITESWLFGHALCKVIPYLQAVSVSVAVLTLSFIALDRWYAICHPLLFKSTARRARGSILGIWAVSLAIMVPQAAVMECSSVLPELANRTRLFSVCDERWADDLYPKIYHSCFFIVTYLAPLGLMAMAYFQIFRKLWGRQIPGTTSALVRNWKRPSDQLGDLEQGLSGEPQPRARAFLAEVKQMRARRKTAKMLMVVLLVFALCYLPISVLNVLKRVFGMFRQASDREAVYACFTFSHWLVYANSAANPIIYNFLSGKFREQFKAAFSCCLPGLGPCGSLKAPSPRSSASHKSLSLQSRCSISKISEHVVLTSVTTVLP
The experiment can be described thus: Intracellular calcium measurements (FLIPR), orexin receptor antagonistic activity, OX1. The following applies: CHO cells expressing human orexin-1 receptor, 10 nM orexin-A as agonist. It is filed as cell-based. How it is done: (§1) The orexin receptor antagonistic activity of the compounds of formula (I) is determined in accordance with the following experimental method.
(§2) Intracellular Calcium Measurements:
(§3) Chinese hamster ovary (CHO) cells expressing the human orexin-1 receptor and the human orexin-2 receptor, respectively, are grown in culture medium (Ham F-12 with L-Glutamine) containing 300 μg/ml G418, 100 U/ml penicillin, 100 μg/ml streptomycin and 10% inactivated fetal calf serum (FCS). The cells are seeded at 80,000 cells/well into 96-well black clear bottom sterile plates (Costar) which have been precoated with 1% gelatine in Hanks' Balanced Salt Solution (HBSS). All reagents are from Gibco BRL. The seeded plates are incubated overnight at 37° C. in 5% CO2.
(§4) Human orexin-A as an agonist is prepared as 1 mM stock solution in MeOH: water (1:1), diluted in HBSS containing 0.1% bovine serum albumin (BSA) and 2 mM HEPES for use in the assay at a final concentration of 10 nM.
(§5) Antagonists are prepared as 10 mM stock solution in DMSO, then diluted in 96-well plates, first in DMSO, then in HBSS containing 0.1% bovine serum albumin (BSA) and 2 mM HEPES.
(§6) On the day of the assay, 100 μl of loading medium (HBSS containing 1% FCS, 2 mM HEPES, 5 mM probenecid (Sigma) and 3 μM of the fluorescent calcium indicator fluo-3 AM (1 mM stock solution in DMSO with 10% pluronic acid) (Molecular Probes) is added to each well.
(§7) The 96-well plates are incubated for 60 min at 37° C. in 5% CO2. The loading solution is then aspirated and cells are washed 3 times with 200 μl HBSS containing 2.5 mM probenecid, 0.1% BSA, 2 mM HEPES. 100 μl of that same buffer is left in each well.
(§8) Within the Fluorescent Imaging Plate Reader (FLIPR, Molecular Devices), antagonists are added to the plate in a volume of 50 μl, incubated for 20 min and finally 100 μl of agonist is added. Fluorescence is measured for each well at 1 second intervals, and the height of each fluorescence peak is compared to the height of the fluorescence peak induced by 10 nM orexin-A with buffer in place of antagonist.

In experiment [2] the target is T2, human orexin-2 receptor (Homo sapiens, UniProt O43614).
T2 construct: expressed in transfected cells; host or cells: CHO (Chinese hamster ovary) cells, grown under G418 selection
T2 sequence (O43614 1-444): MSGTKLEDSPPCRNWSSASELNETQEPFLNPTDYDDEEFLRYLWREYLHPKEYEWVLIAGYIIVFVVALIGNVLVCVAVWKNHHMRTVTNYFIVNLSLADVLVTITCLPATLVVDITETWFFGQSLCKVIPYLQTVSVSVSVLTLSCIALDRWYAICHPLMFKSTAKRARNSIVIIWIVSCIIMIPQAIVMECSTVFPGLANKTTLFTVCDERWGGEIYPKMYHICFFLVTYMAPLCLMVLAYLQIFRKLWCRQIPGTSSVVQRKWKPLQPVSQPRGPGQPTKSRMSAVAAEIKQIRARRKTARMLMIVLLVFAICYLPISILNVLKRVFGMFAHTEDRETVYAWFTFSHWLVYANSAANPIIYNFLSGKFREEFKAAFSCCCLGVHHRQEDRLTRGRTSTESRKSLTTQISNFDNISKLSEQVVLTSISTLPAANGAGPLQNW
The experiment can be described thus: Intracellular calcium measurements (FLIPR), orexin receptor antagonistic activity, OX2. It is filed as cell-based. Conditions: CHO cells expressing human orexin-2 receptor, 10 nM orexin-A as agonist. On the procedure: as §1, §2, §3, §4, §5, §6, §7, §8
For orientation: A change in cytosolic calcium serves as a functional read-out for many receptors and channels.

In the case of `Cc1ccc(C(=O)N2C[C@H]3C[C@H]3[C@H]2CNC(=O)c2cccc3c2OCCO3)c(C#CC2CC2)c1` (racemic) [Example 379, 2,3-Dihydro-benzo[1,4]dioxine-5-carboxylic acid [(1R*,2S*,5S*)-3-(2-cyclopropylethynyl-4-methyl-benzoyl)-3-aza-bicyclo[3.1.0]hex-2-ylmethyl]-amide], the IC50 (usually the point on the concentration scale where inhibition reaches its midpoint) was 373 nM in experiment [1] and 61 nM in experiment [2].

For `Cc1ccc(C(=O)N2C[C@H]3C[C@H]3[C@H]2CNC(=O)c2c3c(cc4c2OCC4)OCC3)c(-c2cccc(F)c2)c1` (relative stereo) [Compound 318], the IC50 in experiment [1] amounted to 196 nM; in experiment [2], 114 nM.

As to `Cc1nc2sccn2c1C(=O)NC[C@@H]1[C@@H]2C[C@@H]2CN1S(=O)(=O)c1ccccc1OC(F)(F)F` (relative stereo) [Example 3, 6-methyl-imidazo[2,1-b]thiazole-5-carboxylic acid [(1R*,2S*,5S*)-3-(2-trifluoromethoxy-benzenesulfonyl)-3-aza-bicyclo[3.1.0]hex-2-ylmethyl]-amide], the IC50 in experiment [1] stood at 158 nM; in experiment [2], 348 nM.

Consider `Cc1nc(C(=O)N2C[C@H]3C[C@H]3[C@H]2CNC(=O)c2ccc(F)cc2)c(-c2cccc(F)c2)s1` (relative stereo) [Example 8, 4-fluoro-N-{[(1R*,2S*,5S*)-3-[5-(3-fluoro-phenyl)-2-methyl-thiazole-4-carbonyl]-3-aza-bicyclo[3.1.0]hex-2-ylmethyl}-benzamide], for which the IC50 in experiment [1] turned out to be 994 nM; in experiment [2], 96 nM.

For the compound `CCc1ccc(-c2sc(C)nc2C(=O)N2C[C@H]3C[C@H]3[C@H]2CNC(=O)c2cccc3occc23)cc1` (relative stereo) [Example 16, benzofuran-4-carboxylic acid {(1R*,2S*,5S*)-3-[5-(4-ethyl-phenyl}2-methyl-thiazole-4-carbonyl]-3-aza-bicyclo[3.1.0]hex-2-ylmethyl}-amide], the IC50 worked out at 143 nM in experiment [1] and 33 nM in experiment [2].

Consider `Nc1nc(-c2ccccc2C(=O)N2C[C@H]3C[C@H]3[C@H]2CNC(=O)c2cccc3occc23)cs1` (relative stereo) [Example 30, benzofuran-4-carboxylic acid {(1R*,2S*,5S*)-3-[2-(2-amino-thiazol-4-yl)benzoyl]-3-aza-bicyclo[3.1.0]hex-2-ylmethyl}-amide], for which the IC50 was 1210 nM in experiment [1] and 32 nM in experiment [2].

For the compound `O=C(NC[C@@H]1[C@@H]2C[C@@H]2CN1C(=O)c1cccc2c1-c1ccccc1C2)c1cccc2occc12` (relative stereo) [Example 31, benzofuran-4-carboxylic acid [(1R*,2S*,5S*)-3-(9H-fluorene-4-carbonyl)-3-aza-bicyclo[3.1.0]hex-2-ylmethyl]-amide], the IC50 was found to be 240 nM in experiment [1] and 51 nM in experiment [2].

On to `O=C(NC[C@@H]1[C@@H]2C[C@@H]2CN1C(=O)c1nccnc1-c1ccccc1)c1cccc2occc12` (relative stereo) [Example 32, benzofuran-4-carboxylic acid [(1R*,2S*,5S*)-3-(3-phenyl-pyrazine-2-carbonyl)-3-aza-bicyclo[3.1.0]hex-2-ylmethyl]-amide], for which the IC50 in experiment [1] came to 2960 nM; in experiment [2], 91 nM.

`COc1ccc(-c2ocnc2C(=O)N2C[C@H]3C[C@H]3[C@H]2CNC(=O)c2cccc3occc23)cc1` (relative stereo) [Example 33, benzofuran-4-carboxylic acid {(1R*,2S*,5S*)-3-[5-(4-methoxy-phenyl)-oxazole-4-carbonyl]-3-aza-bicyclo[3.1.0]hex-2-ylmethyl}-amide]: the figures for the IC50 in experiment [1] and in experiment [2] were 2170 nM and 94 nM, respectively.

In the case of `O=C(NC[C@@H]1[C@@H]2C[C@@H]2CN1C(=O)c1ccccc1-c1ccc(Cl)cc1)c1cccc2occc12` (relative stereo) [Example 42, benzofuran-4-carboxylic acid [(1R*,2S*,5S*)-3-(4′-chloro-biphenyl-2-carbonyl)-3-aza-bicyclo[3.1.0]hex-2-ylmethyl]-amide], the IC50 stood at 237 nM in experiment [1] and 50 nM in experiment [2].

For `Cc1nc(C(=O)N2C[C@H]3C[C@H]3[C@H]2CNc2cnc3cc(F)c(F)cc3n2)c(-c2ccc(F)cc2)s1` (relative stereo) [Example 60, {(1R*,2S*,5S*)-2-[(6,7-difluoro-quinoxalin-2-ylamino)-methyl]-3-aza-bicyclo[3.1.0]hex-3-yl}-[5-(4-fluoro-phenyl)-2-methyl-thiazol-4-yl]-methanone], the IC50 is 596 nM in experiment [1] and 76 nM in experiment [2].

In the case of `O=C(c1ccccc1-c1ccccc1)N1C[C@H]2C[C@H]2[C@H]1CNc1ncc(Br)cn1` (relative stereo) [Example 64, biphenyl-2-yl-{(1R*,2S*,5S*)-2-[(5-bromo-pyrimidin-2-ylamino)methyl]-3-aza-bicyclo[3.1.0]hex-3-yl}-methanone], the IC50 in experiment [1] is 162 nM; in experiment [2], 242 nM.

As to `Cc1cccc(-c2sc(C)nc2C(=O)N2C[C@H]3C[C@H]3[C@H]2CNC(=O)c2sc(Br)nc2C)c1` (relative stereo) [Example 74, 2-bromo-4-methyl-thiazole-5-carboxylic acid [(1R*,2S*,5S*)-3-(2-methyl-5-m-tolyl-thiazole-4-carbonyl)-3-aza-bicyclo[3.1.0]hex-2-ylmethyl]-amide], the IC50 worked out at 99 nM in experiment [1] and 16 nM in experiment [2].

On to `Cc1cccc(-c2sc(C)nc2C(=O)N2C[C@H]3C[C@H]3[C@H]2CNC(=O)c2sc(C)nc2C)c1` (relative stereo) [Example 82, 2,4-dimethyl-thiazole-5-carboxylic acid [(1R*,2S*,5S*)-3-(2-methyl-5-m-tolyl-thiazole-4-carbonyl)-3-aza-bicyclo[3.1.0]hex-2-ylmethyl]-amide], for which the IC50 was determined as 864 nM in experiment [1] and 50 nM in experiment [2].

In the case of `Cc1cccc(-c2sc(C)nc2C(=O)N2C[C@H]3C[C@H]3[C@H]2CNC(=O)c2cnc(CC(C)C)c(C)c2)c1` (relative stereo) [Example 100, 6-isobutyl-5-methyl-N-[(1R*,2S*,5S*)-3-(2-methyl-5-m-tolyl-thiazole-4-carbonyl)-3-aza-bicyclo[3.1.0]hex-2-ylmethyl]-nicotinamide], the IC50 in experiment [1] is 1300 nM; in experiment [2], 80 nM.

As for `Cc1cccc(-c2sc(C)nc2C(=O)N2C[C@H]3C[C@H]3[C@H]2CNC(=O)c2cccc3c2OC(C)(C)C3)c1` (relative stereo) [Example 108, 2,2-Dimethyl-2,3-dihydro-benzofuran-7-carboxylic acid [(1R*,2S*,5S*)-3-(2-methyl-5-m-tolyl-thiazole-4-carbonyl)-3-aza-bicyclo[3.1.0]hex-2-ylmethyl]-amide], the IC50 stood at 131 nM in experiment [1] and 101 nM in experiment [2].

With `Cc1cccc(-c2sc(C)nc2C(=O)N2C[C@H]3C[C@H]3[C@H]2CNC(=O)c2cn(C)c3ccccc23)c1` (relative stereo) [Example 114, 1-Methyl-1H-indole-3-carboxylic acid [(1R*,2S*,5S*)-3-(2-methyl-5-m-tolyl-thiazole-4-carbonyl)-3-aza-bicyclo[3.1.0]hex-2-ylmethyl]-amide], the figures for the IC50 in experiment [1] and in experiment [2] were 93 nM and 124 nM, respectively.
